Reference: patent publication US4049795A, “Treatment of hemorrhagic shock” (priority 1974, dated 1977)
Where two headings read alike, the source gives them in different places.

Experiments:
rats = assay: Toxicity, oral administration in rats; type: in vivo, rat; conditions: six rats
Rabbit ileum = assay: Isolated rabbit ileum, tonus
Method: Fragments of the ileum were suspended in a 75 ml isolated organ tank containing Tyrode's solution maintained at 37° C. by a thermostat and oxygenated by bubbling pure oxygen at a constant rate of flow. The movement of the organ were recorded by means of a lever on a cylinder rotating at a known constant speed.

[1] = pH of a solution in distilled water; type: physicochemical
[2] = system: cerebral anoxemia by clamping; assay: Cerebral anoxemia by clamping in rabbits; type: in vivo, rabbit; conditions: 1 g/kg intravenously
Method: The tests were done on rabbits weighing an average of 2.5 kg. The fastening of the cranial electrodes was done under local anaesthesia with procaine, as was the placing of the catheters in a femoral artery to record the blood pressure. The tracheotomies and tracheal intubations were also done under local anaesthesia using procaine. The temperature was maintained at around 38° C. Three types of anoxemia were investigated; 1. Elective cerebral anoxemia by stopping cerebral circulation (anoxemia by clamping): Artificial ventilation was set up by an apparatus allowing constant volume and speed of respiration. An upper sternatomy of the manubrium was carried out; the left sub-[…] artery, the left carotid artery and the right trucus brachiocephalicus were isolated. The clamps were then put into place according to the technique described by […] and LABORIT (Conference of d Agressologie Cycle, Vol. 1, p. 15 ff of 1959). The artificially ventilated animal preserved good peripheral cardiovascular dynamics during the ischemia and supported 120 seconds of clamping without severe hypotension. 3. Nitrogen anoxemia: The animal was curarized and artifically ventilated as indicated above. Anoxemia was obtained by connecting a nitrogen gasbag to the air intake of the BEAUDOUIN apparatus; general non-hypercapnic anoxemia occurred. Air was […] seconds. […] A latency of 30 minutes was observed before anoxemia was caused.

Hypercapnic anoxemia = Hypercapnic anoxemia in rabbits; type: in vivo, rabbit
Method: The tests were done on rabbits weighing an average of 2.5 kg. The fastening of the cranial electrodes was done under local anaesthesia with procaine, as was the placing of the catheters in a femoral artery to record the blood pressure. The tracheotomies and tracheal intubations were also done under local anaesthesia using procaine. The temperature was maintained at around 38° C. Three types of anoxemia were investigated; 2. Hypercapnic anoxemia: The above-mentioned artificial ventilation of the animal after curarization was stopped. Stopping of the cerebral electrogenesis was obtained after an average of 120 seconds. 3. Nitrogen anoxemia: The animal was curarized and artifically ventilated as indicated above. Anoxemia was obtained by connecting a nitrogen gasbag to the air intake of the BEAUDOUIN apparatus; general non-hypercapnic anoxemia occurred. Air was […] seconds. […] A latency of 30 minutes was observed before anoxemia was caused.

[3] = system: reticulo-endothelial system; assay: Phagocytic activity of the reticulo-endothelial system, carbon clearance (HALPERN); type: in vivo, rabbit; conditions: 1 g/kg
From the text: That technique is based on the study of the kinetics of the disappearance in the blood of particles of carbon injected into the vein. The kinetics of disappearance follow the equation [formula] in which formula C1 is the concentration of carbon in the blood at time T1 and C2 is the concentration of carbon in the blood at time T2, K being a constant. The constant K, called phagocytic index, represents the phagocytic activity of the cells of the reticule-endothelial system under the experimental conditions. For the tests, the technique and carbon suspension described by […]. Physiol. of Paris, Vol. 50, p. […] The study was done on rabbits of the same stock, male or female, or an average weight of about 2.5 kg, devided into four batches of four animals each. The first batch was used as controls and received, by slow intravenous injection, 10 ml of a 0.8% solution of sodium chloride ten minutes before the injection of 4 mg of carbon per 100 g of animal. […] In all the tests, a total volume of 10 ml was injected with a fairly closely related injection speed (less than five minutes).

[4] = system: erythrocytic aggregation of the microcirculation (sludge); assay: Erythrocytic aggregation of the microcirculation (sludge), mesenteric circulation of the rabbit; type: in vivo; conditions: independent of the experimental cause of sludge
Method: This phenomenon was observed by using the technique developed by […] and BRUE (Agressologie, Vol. 4, No. 3, p. 299 ff of 1963): it entails a microscopic observation of the mesenteric circulation of the rabbit. […] The hemorrhagic shock was obtained by the […] method. The perfusion of adrenalin was carried out at a dose of 10 mg/kg/min. for 10 to 15 minutes. The perfusion of lactate was effected at a dose of 0.39 g/min for 15 minutes. The perfusion of ethyl alcohol (in a 20% aqueous solution) was carried out at a dose of 20 ml of solution (i.e. 4 ml of absolute alcohol) for 15 minutes.

blood pressure = conditions: for blood pressure after first injection: Clinical Example 12, 2 g
From the text: A person who had suffered from high blood pressure for a long time underwent an urgent operation for the removal of an intra-cerebral hematoma. […] A person who had suffered from high blood pressure and cardiac arrhythmias, was undergoing an operation for the removal of a bilateral sub-dural hematoma. […] A person of generally good health but who had undergone surgery in the previous month for the excision of a cancer of the cecum, was undergoing an operation for a cerebral metastasis. […] A perfusion of two units of blood (800 ml ) was effected to compensate for the moderate blood losses.

electro-encephalograms = conditions: in vivo
electro-cardiograms = conditions: in vivo
hemorrhagic shock = assay: Irreversible hemorrhagic shock (WIGGERS) in dogs

Compound: O=C(CO)CO [dihydroxyacetone]
- animals died at oral dose of 80 g/kg (rats): one
- tonus of ileum (Rabbit ileum; 50 mg to 75 ml of survival medium): only a slight and transient tonus increase
- tonus of ileum (Rabbit ileum; dose printed as 18): a momentary hypertonia
- effect of potassium chloride in the presence of dihydroxyacetone (Rabbit ileum; rabbit ileum): decreases only the contractile amplitude without affecting the tonus
- effect on hypertonia due to acetylcholine (Rabbit ileum; rabbit ileum, acetylcholine): did not change
- effect on hypertonia caused by adrenalin (Rabbit ileum; rabbit ileum, adrenalin): clearly decreased
- effect on action of nicotine (Rabbit ileum; rabbit ileum, nicotine): clearly diminished
- effect on hypertonic activity of serotonin (Rabbit ileum; rabbit ileum, serotonin): The same observation was made with serotonin
- effect on hypertonic action of sodium lactate (Rabbit ileum; rabbit ileum, sodium lactate): influenced to only a small degree
- effect on hypertonic activity of reducing agents (Rabbit ileum; vitamin C or amino-ethyl isothiouronium): disappeared
- pH of a solution in distilled water [1]: 4
- recuperation latency, anoxemia by clamping [2]: no improvement at all
- recuperation time, anoxemia by clamping [2]: no improvement
- survival time, anoxemia by clamping ([2]; prior perfusion): minor
- recuperation latency, hypercapnic anoxemia (Hypercapnic anoxemia; 1 g/kg intravenously): an improvement which was difficult to measure
- survival time, hypercapnic anoxemia (Hypercapnic anoxemia; 1 g/kg intravenously, prior perfusion): pronounced
- recuperation time, hypercapnic anoxemia (Hypercapnic anoxemia; 1 g/kg intravenously, result in words): a clear improvement
- recuperation time, hypercapnic anoxemia (Hypercapnic anoxemia; for 2 minutes of anoxemia): ≤ 30 s
- speed of purification of the carbon particles with respect to control animals ([3]; 10 minutes before lactic acid 0.9 g/kg, FIG. 6): considerably increases
- speed at which the carbon particles disappear with respect to control animals ([3]; FIG. 5): practically no change
- intravascular aggregation (sludge) [4]: caused the intravascular aggregation to disappear
- mesenteric capillary circulation [4]: re-established the mesenteric capilliary circulation
- blood pressure after first injection (blood pressure; after two hours): 95 mm Hg
- blood pressure after first injection (blood pressure; one hour, from 90): 130 mm Hg
- blood pressure after second injection (blood pressure; Clinical Example 12, second 2 g in 10% glucose solution, remained): 130 mm Hg
- blood pressure after injection (blood pressure; Clinical Example 13, 2 g over 15 minutes, from 60): 100 mm Hg
- blood pressure after injection (blood pressure; Clinical Example 14, 2 g, 45 minutes later): 170 mm Hg
- blood pressure after injection (blood pressure; Clinical Example 14, 2 g, within 20 minutes, from 70): 130 mm Hg
- blood pressure after perfusion (blood pressure; Clinical Example 15, 2 g, within 15 minutes, from 60): 110 mm Hg
- blood pressure after injection, stabilized (blood pressure; Clinical Example 16, 3 g): 100 mm Hg
- blood pressure after injection, initial rise (blood pressure; Clinical Example 16, 3 g, from 80): 120 mm Hg
- post-operative complications (blood pressure; human, in vivo): no post-operative complications
- undesirable side effects (blood pressure; human, in vivo): without undesirable side effects
- formation of slow waves (electro-encephalograms): does not seem to favour the formation of slow waves
- change in the electro-cardiograms (electro-cardiograms): no change in the electro-cardiograms within standard deviations
- duration of the rise in blood pressure (hemorrhagic shock; 4 to 7 g/kg): maintained for several hours
- arterial and venous CO2 pressures and pH in hemorrhagic shock (hemorrhagic shock; 4 to 7 g/kg over about 3 hours): developed in a similar manner to those existing in the control animals
- glycemia in hemorrhagic shock (hemorrhagic shock; 4 to 7 g/kg over about 3 hours): rose above its initial level
- kalemia in hemorrhagic shock (hemorrhagic shock; 4 to 7 g/kg over about 3 hours): rose above that of the control animals
- lactacidemia in hemorrhagic shock (hemorrhagic shock; 4 to 7 g/kg over about 3 hours): reached values higher than in the control animals
- pyruvicemia in hemorrhagic shock (hemorrhagic shock; 4 to 7 g/kg over about 3 hours): continued to rise
- average difference in blood pressure between end of reinjection of effused blood and after the perfusion (hemorrhagic shock; 4 to 7 g/kg, average): 21.5 mm Hg
- blood pressure elevation or restoration compared with hypertonic glucose (hemorrhagic shock; comparison in words): appears to be more active than hypertonic glucose
- effect on the blood pressure in hemorrhagic shock (hemorrhagic shock; irreversible shock): favorable effect on the blood pressure
